Reference: patent EP0193249A2, “Benzoyl urea derivatives having ati-tumor activity” (DUPHAR INTERNATIONAL RESEARCH B.V, priority 1985, dated 1986)

System: B16 melanoma cells
Experiment: B16 melanoma test (test 1)
Type: cell-based
Settings: Mus musculus, 50 /ug/ml, aqueous suspension, incubation 20 hours, cells counted 48 hours after start
Method: B16 melanoma cells grow as a "mono]ayer". The doubling time of these cells in a cell culture is 12-16 hours.
On day 0, a quantity of […] B16 melanoma cells is introduced in each cell culture dish.
On day 1 the compounds to be examined are vortexed in the presence of glass beads. The compound to be tested is then added to the dishes with melanoma celles in the desired quantity. The incubation takes place at 37°C for 20 hours in a C02 incubator. The incubation is terminated by removing the culture medium with therein the compound to be tested, after which the cells are wahsed once and fresh medium is added.
Forty-eight hours after the beginning of the incubation the quantity of cells in each dish is measured by means of a microcell Coulter Counter. The results thus obtained are expressed by indicating the activity of the compounds by 1+, 2+, 3+, 4+ or 5+ having the following meanings: • 1+: cell growth is inhibited by 1-20% with respect to the control test • 2+: cell growth is inhibited by 21-40% with respect to the control test • 3+: cell growth is inhibited by 41-60% with respect to the control test • 4+: cell growth is inhibited by 61-80% with respect to the control test • 5+: cell growth is inhibited by 81-100% with respect to the control test.
Sensitivity of B16 melanoma cells.
In the above-described manner, various compounds according to the invention were tested in dosages of 50 /ug/ml in the form of an aqueous suspension.

| Structure (SMILES) | inhibition at 50 µg/mL |
| --- | --- |
| O=C(NC(=O)c1c(F)cccc1F)Nc1ccc(C(O)(C(F)(F)F)C(F)(F)F)cc1 [compound 4] | 81 to 100% |
| CCN(CC)c1cccc(F)c1C(=O)NC(=O)Nc1ccc(Cl)cc1 [compound 17] | 21 to 40% |
| O=C(NC(=O)c1ccccc1N1CCCCC1)Nc1ccc(C(F)(F)F)cc1 [compound 10] | 1 to 20% |
| CN(C)c1ccccc1C(=O)NC(=O)Nc1ccc(Cl)cc1 [compound 15] | 81 to 100% |
| Nc1ccccc1C(=O)NC(=O)Nc1ccc(Cl)cc1 [compound 13] | 1 to 20% |
| Nc1ccc(C(=O)NC(=O)Nc2ccccc2N)cc1 [compound 8] | 1 to 20% |
| CCOC(=O)c1ccc(NC(=O)NC(=O)c2c(F)cccc2F)cc1 [compound 5] | 41 to 60% |
| O=C(NC(=O)c1c(F)c(F)c(F)c(F)c1F)Nc1ccc(O)c(C(F)(F)F)c1 [compound 2] | 81 to 100% |
| CC(Oc1ccc(NC(=O)NC(=O)c2c(F)cccc2F)cc1)c1ccncc1 (centres unmarked) [compound 14] | 61 to 80% |
| O=C(NC(=O)c1c(O)cccc1Cl)Nc1c(F)c(F)c(F)c(F)c1F [compound 1] | 61 to 80% |
| O=C(NC(=O)Nc1ccc(Cl)cc1)NC(=O)c1c(O)cccc1Cl [compound 16] | 61 to 80% |
| CN(C)c1cccc(F)c1C(=O)NC(=O)Nc1ccc(Cl)cc1 [compound 3] | 81 to 100% |
| O=C(NC(=O)c1c(F)c(F)c(F)c(F)c1F)Nc1ccc(Cl)cc1 [compound 7] | 61 to 80% |
| O=C(NC(=O)c1c(F)c(F)c(F)c(F)c1F)Nc1c(F)c(F)c(F)c(F)c1F [compound 6] | 81 to 100% |
| COc1ccc(NC(=O)NC(=O)c2c(F)cccc2N(C)C)cc1 [compound 11] | 81 to 100% |
| CN(C)c1cccc(F)c1C(=O)NC(=O)Nc1c(F)c(F)c(F)c(F)c1F [compound 12] | 61 to 80% |
| Nc1cc(N)c(Cl)c(C(=O)NC(=O)Nc2ccc(Cl)cc2)c1Cl [compound 9] | 21 to 40% |
